This note sets out measurements from patent publication US20240124450A1, “Novel SIK Inhibitors” (Pfizer Inc., priority 2022, published 2024).

One experiment has as its target SIK2 (Homo sapiens (Human), UniProt Q9H0K1). The experiment is described as follows: Pan SIK MS IC50 enzyme assay (SIK2). It counts as biochemical. The note with it: 1 mM ATP, substrate peptide AQT0252, LCMS/MS detection. The method, then: (§1) Enzyme Assay: Pan SIK MS IC50 Assay
(§2) Salt Induced Kinase (SIK) activity is determined by measuring the effect of a test agent on the activity of the appropriate SIK enzyme to phosphorylate its corresponding substrate. […] The phosphorylated substrate product resulting from the kinase reaction is detected by LCMS/MS, and the area under the peak curve correlates with kinase activity. […] The plates are spun at 1000 rpm for 30 seconds to ensure compounds are at the bottom of the well before removing foil covers. 0.15 μL HPE (assay std) and ZPE (DMSO) are added to the ARP using an HP D300 dispenser. Plates are spun again at 1000 rpm for 30 seconds. […] Plates are spun at 1000 rpm for 30 seconds. Plates are then sealed and incubated at RT for 10 minutes. Following incubation, 5 μL of 5× peptide reagent is added with a Multidrop Combi and designated small volume cassette to initiate the kinase reaction. Plates are spun at 1000 rpm for 30 seconds. Plates are then sealed and incubated at RT for 90 minutes. The assay is stopped by the addition of 5 μl of 120 mM EDTA added with a Multidrop Combi and designated small volume cassette (20 mM final concentration). Plates are spun at 1000 rpm for 30 seconds. 10 μl of the final reaction mix from each of the three individual enzyme plates are transferred by a Platemate Plus to the same corresponding 96 well deepwell plate containing 70 μl Water/Methanol (85/15%) for multiplex MS detection ([…]). Using Activity Base (ABase), an idbs data analysis software tool, the reported area ratio unit data is associated to compound, batch and dose information, the data is evaluated for quality, and the percent inhibition of each well is calculated. The data from each Max effect/HPE and Min effect/ZPE control wells are assessed, and outliers are excluded from all further calculations. The mean and standard deviation of the HPE and ZPE are then calculated for each plate, along with the Z Prime. The compound data is converted into % effect, using the average ZPE and HPE controls as 0% and 100% activity, respectively.

The next experiment deals with SIK1 (Homo sapiens (Human), UniProt P57059). Kind of experiment: Pan SIK MS IC50 enzyme assay (SIK1). Type of experiment: biochemical. Conditions: 1 mM ATP, substrate peptide AQT0868, LCMS/MS detection. The method, then: as §1, §2
Experiment [1] deals with TNFα release from human monocyte derived macrophages stimulated with LPS. Kind of experiment: SIK macrophage cytokine assay, inhibition of TNFα release. Conditions: Macrophage, 1 ng/mL LPS, 4 hours, HTRF, read-out: TNFa IC50. Type of experiment: cell-based. The method, then: (§3) Cytokine Assays: SIK Macrophage Assay Cytokine activity is determined by measuring the effect of a test agent on the inhibitory release of the cytokine TNFα and the increasing release of the cytokine IL10 from human monocyte derived macrophages (human macrophages) stimulated with lipopolysaccharide (LPS). At the time of assay, human macrophages (CGPS group Pfizer Groton, CT) are removed from cryopreservation, thawed quickly at 37° C., diluted in thaw medium (OptiMEM—Gibco medium, 10% heat inactivated fetal bovine serum (HIFBS)), and then centrifuged at 200×g for 10 minutes. […] After ˜60 minutes in an incubator at 37° C. in a humidified environment in 5% carbon dioxide the cells are stimulated by the addition of 5 μL of LPS (10 ng/mL; Sigma) and the assay plate is returned to an incubator at 37° C. in a humidified environment in 5% carbon dioxide for 4 hours. […] The final concentration of DMSO in the assay is approximately 0.1%. After 4 hours, the assay plate is removed from the incubator and centrifuged at 1500 rpm for 10 minutes. A portion of the resulting cell supernatant is then used to determine the amount of IL-10 and TNFα in each well. Cytokine measurements are made using human IL-10 and TNFα HTRF assay kits (Perkin Elmer) following the manufacturer's assay protocol.
(TR-FRET usually uses a lanthanide donor and a delayed reading to cut background.)

The target of a further experiment is SIK3 (Homo sapiens (Human), UniProt Q9Y2K2). The experiment is described as follows: Pan SIK MS IC50 enzyme assay (SIK3). It counts as biochemical. Conditions: 1 mM ATP, substrate peptide AQT0508, LCMS/MS detection. The method, then: as §1, §2
Experiment [2] deals with IL10 release from human monocyte derived macrophages stimulated with LPS. The experiment is described as follows: SIK macrophage cytokine assay, increase of IL10 release. Type of experiment: cell-based. Conditions: Macrophage, 1 ng/mL LPS, 4 hours, HTRF. The method, then: as §3

Sequence of SIK1 (P57059 whole entry, species assumed): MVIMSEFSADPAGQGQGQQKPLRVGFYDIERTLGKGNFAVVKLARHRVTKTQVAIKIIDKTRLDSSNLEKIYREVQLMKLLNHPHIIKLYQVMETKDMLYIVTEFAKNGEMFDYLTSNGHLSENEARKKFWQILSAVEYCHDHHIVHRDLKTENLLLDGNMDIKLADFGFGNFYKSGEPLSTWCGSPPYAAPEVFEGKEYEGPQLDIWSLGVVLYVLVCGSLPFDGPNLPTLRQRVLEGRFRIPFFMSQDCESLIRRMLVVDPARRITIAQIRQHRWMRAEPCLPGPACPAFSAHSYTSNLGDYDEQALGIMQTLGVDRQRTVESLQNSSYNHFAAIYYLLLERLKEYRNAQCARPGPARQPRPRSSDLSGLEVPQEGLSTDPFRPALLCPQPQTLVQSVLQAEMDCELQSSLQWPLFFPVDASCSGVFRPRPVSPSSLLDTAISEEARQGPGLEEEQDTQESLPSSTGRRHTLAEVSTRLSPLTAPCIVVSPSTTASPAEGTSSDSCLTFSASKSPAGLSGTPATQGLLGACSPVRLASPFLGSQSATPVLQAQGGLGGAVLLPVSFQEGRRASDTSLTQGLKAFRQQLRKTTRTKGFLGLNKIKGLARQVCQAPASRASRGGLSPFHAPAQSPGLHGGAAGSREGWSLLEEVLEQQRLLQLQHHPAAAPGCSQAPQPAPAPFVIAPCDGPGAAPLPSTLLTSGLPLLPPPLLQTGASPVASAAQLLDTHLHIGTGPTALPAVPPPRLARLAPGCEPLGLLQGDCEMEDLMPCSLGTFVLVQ
Sequence of SIK3 (Q9Y2K2 whole entry, species assumed): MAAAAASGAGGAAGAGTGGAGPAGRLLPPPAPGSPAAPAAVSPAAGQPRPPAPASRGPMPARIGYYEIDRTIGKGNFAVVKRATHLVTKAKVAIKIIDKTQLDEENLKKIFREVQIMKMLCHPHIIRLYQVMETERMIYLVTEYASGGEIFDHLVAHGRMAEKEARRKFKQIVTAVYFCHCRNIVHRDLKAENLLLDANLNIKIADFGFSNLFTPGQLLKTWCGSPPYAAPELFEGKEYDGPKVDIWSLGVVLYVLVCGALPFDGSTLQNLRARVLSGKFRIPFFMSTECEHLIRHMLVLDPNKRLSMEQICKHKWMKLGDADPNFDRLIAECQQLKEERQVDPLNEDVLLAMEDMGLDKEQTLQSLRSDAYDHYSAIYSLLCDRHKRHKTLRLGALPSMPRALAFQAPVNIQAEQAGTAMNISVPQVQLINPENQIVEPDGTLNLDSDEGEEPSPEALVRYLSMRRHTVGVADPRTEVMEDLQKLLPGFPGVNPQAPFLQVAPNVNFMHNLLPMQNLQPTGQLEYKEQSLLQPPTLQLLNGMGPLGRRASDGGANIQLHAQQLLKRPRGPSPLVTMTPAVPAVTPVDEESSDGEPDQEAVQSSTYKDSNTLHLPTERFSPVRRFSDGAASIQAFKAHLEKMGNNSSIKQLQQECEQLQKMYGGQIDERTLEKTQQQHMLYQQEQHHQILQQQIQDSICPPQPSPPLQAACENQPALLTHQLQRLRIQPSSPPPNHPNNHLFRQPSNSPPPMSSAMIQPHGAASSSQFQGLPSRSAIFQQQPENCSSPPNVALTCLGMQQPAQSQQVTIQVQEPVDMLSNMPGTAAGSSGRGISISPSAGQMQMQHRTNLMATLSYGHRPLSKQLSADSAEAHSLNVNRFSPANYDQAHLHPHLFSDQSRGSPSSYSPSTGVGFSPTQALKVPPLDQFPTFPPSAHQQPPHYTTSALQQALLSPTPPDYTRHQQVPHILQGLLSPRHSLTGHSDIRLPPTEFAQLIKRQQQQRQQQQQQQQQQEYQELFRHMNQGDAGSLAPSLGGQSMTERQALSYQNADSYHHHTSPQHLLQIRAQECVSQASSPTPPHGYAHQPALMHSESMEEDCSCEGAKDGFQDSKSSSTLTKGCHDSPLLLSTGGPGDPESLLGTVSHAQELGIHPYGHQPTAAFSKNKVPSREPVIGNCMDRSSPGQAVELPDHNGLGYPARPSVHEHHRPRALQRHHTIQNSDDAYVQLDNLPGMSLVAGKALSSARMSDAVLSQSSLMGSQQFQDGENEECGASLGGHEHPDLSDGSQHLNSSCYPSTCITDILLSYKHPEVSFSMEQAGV
Sequence of SIK2 (Q9H0K1 whole entry, species assumed): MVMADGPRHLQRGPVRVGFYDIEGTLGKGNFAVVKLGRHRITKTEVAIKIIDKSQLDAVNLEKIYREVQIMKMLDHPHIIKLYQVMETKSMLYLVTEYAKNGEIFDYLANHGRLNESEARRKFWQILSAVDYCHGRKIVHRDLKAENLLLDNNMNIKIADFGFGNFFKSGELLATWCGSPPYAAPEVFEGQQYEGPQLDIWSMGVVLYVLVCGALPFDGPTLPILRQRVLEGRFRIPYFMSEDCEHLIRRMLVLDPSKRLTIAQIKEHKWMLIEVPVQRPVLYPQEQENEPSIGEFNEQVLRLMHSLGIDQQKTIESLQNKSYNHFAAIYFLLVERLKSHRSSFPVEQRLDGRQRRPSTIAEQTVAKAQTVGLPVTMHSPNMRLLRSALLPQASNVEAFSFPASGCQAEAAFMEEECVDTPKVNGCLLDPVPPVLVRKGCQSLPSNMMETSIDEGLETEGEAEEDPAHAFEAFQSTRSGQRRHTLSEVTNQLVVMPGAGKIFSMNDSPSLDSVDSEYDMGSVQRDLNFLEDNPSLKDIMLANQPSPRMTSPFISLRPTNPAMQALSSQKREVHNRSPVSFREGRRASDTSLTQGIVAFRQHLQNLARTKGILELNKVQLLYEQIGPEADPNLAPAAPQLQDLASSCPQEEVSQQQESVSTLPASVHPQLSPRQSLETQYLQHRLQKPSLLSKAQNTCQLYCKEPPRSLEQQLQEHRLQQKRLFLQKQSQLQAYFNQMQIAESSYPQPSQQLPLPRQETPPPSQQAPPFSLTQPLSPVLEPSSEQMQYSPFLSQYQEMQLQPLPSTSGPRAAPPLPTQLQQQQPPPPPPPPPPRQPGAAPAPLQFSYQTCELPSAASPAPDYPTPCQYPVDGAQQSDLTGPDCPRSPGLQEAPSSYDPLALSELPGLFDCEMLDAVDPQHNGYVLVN

A word on the IC50: it is the concentration that gives 50% inhibition. As a reminder, the EC50 is the midpoint of the concentration-response curve. Take `CSc1cc(-c2cnc3ccc(N(C)C)c(C#N)n23)cc(OCC2(N)CCCC2)c1C#N` [Example 43, 3-(3-((1-Aminocyclopentyl)methoxy)-4-cyano-5-(methylthio)phenyl)-6-(dimethylamino)imidazo[1,2-a]pyridine-5-carbonitrile]: the IC50 on SIK2 is 0.4 nM; on SIK1, 0.2 nM; in experiment [1] it was 0.6 nM; against SIK3, 1.1 nM. In experiment [2], a half-maximal response (EC50) required 2 nM.

Consider `CCc1ccc2ncc(-c3cc(OCC4(N)CCCC4)c(C#N)c(SC)c3)n2c1C#N` [Example 44, 3-(3-((1-Aminocyclopentyl)methoxy)-4-cyano-5-(methylthio)phenyl)-6-ethylimidazo[1,2-a]pyridine-5-carbonitrile], for which the IC50 at SIK2 turned out to be 1.7 nM; against SIK1 it was 2.3 nM; in experiment [1], 21 nM; against SIK3, 2.1 nM. The EC50 in experiment [2] was 38 nM.

Turning to `CSc1cc(-c2cnc3ccc(N)c(C#N)n23)cc(OCC2(N)CCCC2)c1C#N` [Example 45, 6-Amino-3-(3-((1-aminocyclopentyl)methoxy)-4-cyano-5-(methylthio)phenyl)imidazo[1,2-a]pyridine-5-carbonitrile], the IC50 turned out to be 0.2 nM at SIK2, 0.1 nM at SIK1, 0.6 nM in experiment [1] and 0.4 nM against SIK3. Besides, in experiment [2], the half-maximal effective concentration (EC50) is 3 nM.

In the case of `CSc1cc(-c2cnc3ccc(N4CCC4)c(C#N)n23)cc(OCC2(N)CCCC2)c1C#N` [Example 46, 3-(3-((1-Aminocyclopentyl)methoxy)-4-cyano-5-(methylthio)phenyl)-6-(azetidin-1-yl)imidazo[1,2-a]pyridine-5-carbonitrile], the IC50 was found to be 1.5 nM at SIK2, 0.8 nM against SIK1, 6.9 nM in experiment [1] and 2.8 nM against SIK3. The midpoint of the response in experiment [2], the EC50, lay at 28 nM.

In the case of `CSc1cc(-c2cnc3ccc(N4CCCC4)c(C#N)n23)cc(OCC2(N)CCCC2)c1C#N` [Example 47, 3-(3-((1-Aminocyclopentyl)methoxy)-4-cyano-5-(methylthio)phenyl)-6-(pyrrolidin-1-yl)imidazo[1,2-a]pyridine-5-carbonitrile], the IC50 at SIK2 was determined as 0.4 nM; on SIK1 it was 0.2 nM; in experiment [1], 1.4 nM; against SIK3, 0.9 nM. The EC50 in experiment [2] stood at 6 nM.

Regarding `COc1cc(-c2cnc3ccc(N(C)C)c(C#N)n23)cc(OCC2(N)CCCC2)c1C#N` [Example 48, 3-(3-((1-Aminocyclopentyl)methoxy)-4-cyano-5-methoxyphenyl)-6-(dimethylamino)imidazo[1,2-a]pyridine-5-carbonitrile], the IC50 on SIK2 was 0.7 nM; on SIK1, 0.4 nM; in experiment [1], 0.8 nM; at SIK3, 1.7 nM. Moreover, in experiment [2], a half-maximal response (EC50) required 4 nM.

Take `COc1ccc2ncc(-c3cc(OCC4(N)CCCCC4)c(C#N)c(SC)c3)n2c1C#N` [Example 49, 3-(3-((1-Aminocyclohexyl)methoxy)-4-cyano-5-(methylthio)phenyl)-6-methoxyimidazo[1,2-a]pyridine-5-carbonitrile]: the IC50 against SIK2 came to 0.7 nM; at SIK1, 0.9 nM; in experiment [1] it was 6.5 nM; against SIK3, 2.4 nM. This compound returned an EC50 in experiment [2] of 18 nM.

As for `COc1cc(C#N)n2c(-c3cc(OCC4(N)CCCC4)c(C#N)c(SC)c3)cnc2c1` [Example 50, 3-(3-((1-Aminocyclopentyl)methoxy)-4-cyano-5-(methylthio)phenyl)-7-methoxyimidazo[1,2-a]pyridine-5-carbonitrile], the IC50 was 0.5 nM against SIK2, 1.2 nM against SIK1, 4.2 nM in experiment [1] and 0.8 nM at SIK3. Further, a half-maximal effect in experiment [2] (EC50) was put at 29 nM.

For the compound `COc1cc(C#N)n2c(-c3cc(OCC4(N)CCCCC4)c(C#N)c(SC)c3)cnc2c1` [Example 51, 3-(3-((1-Aminocyclohexyl)methoxy)-4-cyano-5-(methylthio)phenyl)-7-methoxyimidazo[1,2-a]pyridine-5-carbonitrile], the IC50 against SIK2 was determined as 0.5 nM; at SIK1 it was 1.5 nM; in experiment [1], 5.7 nM; against SIK3, 1.6 nM. The same compound showed an EC50 in experiment [2] of 26 nM.

As for `COc1cc(C#N)n2c(-c3cc(OC)c(C#N)c(OCC4(N)CCCCC4)c3)cnc2c1` [Example 52, 3-(3-((1-Aminocyclohexyl)methoxy)-4-cyano-5-methoxyphenyl)-7-methoxyimidazo[1,2-a]pyridine-5-carbonitrile], the IC50 was found to be 1.1 nM against SIK2, 5.1 nM at SIK1, 12 nM in experiment [1] and 2.1 nM on SIK3. Besides, in experiment [2], a half-maximal effect (EC50) was put at 178 nM.

For `CNc1ccc2ncc(-c3cc(OCC4(N)CCCC4)c(C#N)c(SC)c3)n2c1C#N` [Example 53, 3-(3-((1-Aminocyclopentyl)methoxy)-4-cyano-5-(methylthio)phenyl)-6-(methylamino)imidazo[1,2-a]pyridine-5-carbonitrile], the IC50 on SIK2 came out at 0.4 nM; against SIK1, 0.1 nM; in experiment [1], 0.5 nM; against SIK3, 1.5 nM. This compound displayed an EC50 in experiment [2] of 4 nM.
